Measurements: BindingDB's records for doi:10.1021/jm00055a008 (Tufts University, 1993)

What follows are compounds tested against Tetracycline efflux protein TetA(B) (Escherichia coli) (assay: Inhibition of [3H]tetracycline uptake into everted membrane vesicles, prepared from tetracycline resistant Escherichia coli D1-209).

IC50 [nM] | Compound
1200 | COc1ccc(SC[C@H]2c3cccc(O)c3C(=O)C3C(=O)[C@]4(O)C(=O)C(C(N)=O)C(=O)[C@@H](N(C)C)C4[C@@H](O)C32)cc1 (stereo not given in full) [4-Dimethylamino-3,5,10,12,12a-pentahydroxy-6-(4-methoxy-phenylsulfanylmethyl)-1,11-dioxo-1,4,4a,5,5a,6,11,12a-octahydro-naphthacene-2-carboxylic acid amide]
1000 | CN(C)[C@@H]1C(=O)C(C(=O)NCN2CCOCC2)C(=O)[C@@]2(O)C(=O)C3C(=O)c4c(O)cccc4[C@H](CSC4CCCC4)C3[C@H](O)C12 (stereo not given in full) [6-Cyclopentylsulfanylmethyl-4-dimethylamino-3,5,10,12,12a-pentahydroxy-1,11-dioxo-1,4,4a,5,5a,6,11,12a-octahydro-naphthacene-2-carboxylic acid (morpholin-4-ylmethyl)-amide]
1600 | CN(C)[C@@H]1C(=O)C(C(N)=O)C(=O)[C@@]2(O)C(=O)C3C(=O)c4c(O)cccc4[C@H](CSc4ccc(Cl)cc4)C3[C@H](O)C12 (stereo not given in full) [6-(4-Chloro-phenylsulfanylmethyl)-4-dimethylamino-3,5,10,12,12a-pentahydroxy-1,11-dioxo-1,4,4a,5,5a,6,11,12a-octahydro-naphthacene-2-carboxylic acid amide]
1500 | CN(C)[C@@H]1C(=O)C(C(N)=O)C(=O)[C@@]2(O)C(=O)C3C(=O)c4c(O)cccc4[C@H](CS(=O)(=O)Cc4ccccc4)C3[C@H](O)C12 (stereo not given in full) [4-Dimethylamino-3,5,10,12,12a-pentahydroxy-1,11-dioxo-6-phenylmethanesulfonylmethyl-1,4,4a,5,5a,6,11,12a-octahydro-naphthacene-2-carboxylic acid amide]
43200 | CN(C)[C@@H]1C(=O)C(C(N)=O)C(=O)[C@@]2(O)C(=O)C3C(=O)c4c(O)cccc4[C@H](CSCCC(=O)O)C3[C@H](O)C12 (stereo not given in full) [3-(9-Carbamoyl-7-dimethylamino-1,6,8,10a,11-pentahydroxy-10,12-dioxo-5,5a,6,6a,7,10,10a,12-octahydro-naphthacen-5-ylmethylsulfanyl)-propionic acid]
500 | CN(C)[C@@H]1C(=O)C(C(N)=O)C(=O)[C@@]2(O)C(=O)C3C(=O)c4c(O)cccc4[C@H](CSC(C)(C)C)C3[C@H](O)C12 (stereo not given in full) [6-tert-Butylsulfanylmethyl-4-dimethylamino-3,5,10,12,12a-pentahydroxy-1,11-dioxo-1,4,4a,5,5a,6,11,12a-octahydro-naphthacene-2-carboxylic acid amide]
6900 | CN(C)[C@@H]1C(=O)C(C(N)=O)C(=O)[C@@]2(O)C(=O)C3C(=O)c4c(O)cccc4[C@H](CSc4ccccc4)C3[C@H](O)C12 (stereo not given in full) [4-Dimethylamino-3,5,10,12,12a-pentahydroxy-1,11-dioxo-6-phenylsulfanylmethyl-1,4,4a,5,5a,6,11,12a-octahydro-naphthacene-2-carboxylic acid amide]
800 | CCCCSC[C@H]1c2cccc(O)c2C(=O)C2C(=O)[C@]3(O)C(=O)C(C(N)=O)C(=O)[C@@H](N(C)C)C3[C@@H](O)C21 (stereo not given in full) [6-Butylsulfanylmethyl-4-dimethylamino-3,5,10,12,12a-pentahydroxy-1,11-dioxo-1,4,4a,5,5a,6,11,12a-octahydro-naphthacene-2-carboxylic acid amide]
2100 | CN(C)[C@@H]1C(=O)C(C(N)=O)C(=O)[C@@]2(O)C(=O)C3C(=O)c4c(O)cccc4[C@H](CSCc4ccc(Cl)cc4)C3[C@H](O)C12 (stereo not given in full) [6-(4-Chloro-benzylsulfanylmethyl)-4-dimethylamino-3,5,10,12,12a-pentahydroxy-1,11-dioxo-1,4,4a,5,5a,6,11,12a-octahydro-naphthacene-2-carboxylic acid amide]
7900 | CSC[C@H]1c2cccc(O)c2C(=O)C2C(=O)[C@]3(O)C(=O)C(C(N)=O)C(=O)[C@@H](N(C)C)C3[C@@H](O)C21 (stereo not given in full) [4-Dimethylamino-3,5,10,12,12a-pentahydroxy-6-methylsulfanylmethyl-1,11-dioxo-1,4,4a,5,5a,6,11,12a-octahydro-naphthacene-2-carboxylic acid amide]
